These are literature values, as cited in US20030220416A1, “Curable compositions with antimicrobial properties” (priority 1998, published 2003).

The structures appear in SMILES notation. Where two headings read alike, the source gives them in different places.

The subject of one data set is bacteria. The note with it: MDPB incorporated in experimental composites.
In the next data set the test system is S. mutans. As to conditions: MDPB incorporated in experimental composites.
For data set [1] the following is noted: most of the compositions tested.

Turning to `C=C(C)C(=O)OCCCCCCCCCCCC[n+]1ccccc1.[Br-]` [MDPB, methacryloyloxydodecylpyridinium bromide], the “zone of inhibition by the disk diffusion method” value in the data set with bacteria is given as “no zone of inhibition was evident”. Besides, in the data set on S. mutans, the “attachment of S. mutans to surfaces of the restorative material” value is recorded as “reduced”.
Consider `Oc1cc(Cl)ccc1Oc1ccc(Cl)cc1Cl` [Triclosan, 2,4,4′-trichloro-2′hydroxydiphenyl ether], for which the “release of the triclosan into the surrounding medium” value in data set [1] is listed as 0.02 micrograms/ml. Further, the water solubility by setting is: (distilled water at 20° C.) 20 ppm; (distilled water at 50° C.) 20 ppm.
